# Laboratory results as given in patent US20080254080A1, “Novel Uses of Calcium Hydroxide” (priority 2004, published 2008).
# Columns and labels:
# H5N1 virus = conditions: cited from earlier work
# [1] = tested on: warts, toe and foot fungus, skin tags; test: Topical use of hydrated lime; conditions: in vivo
# [2] = tested on: different bacterial strains including Bacillus subtilis; conditions: agar diffusion; hydrated spores; cited from earlier work
SMILES,susceptibility of H5N1 virus currently infecting birds in Asia (H5N1 virus),"removal of warts, toe and foot fungus, skin tags [1]","antimicrobial activity compared with the other antimicrobial agents (MTA, Portland cement, Sealapex, Dycal) [2]"
NC12CC3CC(CC(C3)C1)C2 [amantadine],resistant,–,–
CC(N)C12CC3CC(CC(C3)C1)C2 (stereo not shown) [rimantadine],resistant,–,–
[Ca+2].[OH-].[OH-] [calcium hydroxide],–,"shown to remove warts, toe and foot fungus, skin tags",superior
